Measurements as given in patent publication EP2208725A1, “Novel specific inhibitors of ubiquitin specific protease 7, the pharmaceutical compositions thereof and their therapeutic applications” (Hybrigenics S.A., priority 2009, dated 2010).
pIC50: −log10 of the molar value.

Legend:
human USP7 = biological target: T1, human USP7 (Homo sapiens, UniProt Q93009); assay: USP7 activity assay (Ub-AMC); type: biochemical; details: 300 nM Ub-AMC, 100 pM enzyme; compounds tested from 200 µM to 91 nM; unit inferred; read-out: Inhibition of cysteine protease activities: USP7
T1 construct: Full-length wild-type human USP7; His (N); made in house; host or cells: Spodoptera frugiperda Sf9 (baculovirus, pFastBac-HT)
Excerpt: The cDNA encoding USP7 was obtained by PCR amplification from placenta mRNA. USP7 cDNA was subcloned by PCR into a baculovirus expression vector (pFastBac-HT; Invitrogen). Full-length wild-type human USP7 and its catalytic mutant (cysteine 223 replaced by alanine, C223A) were produced as N-terminally His-tagged fusions in Spodoptera frugiperda cells (Sf9, Invitrogen), using the Bac-to-Bac Baculovirus system from Invitrogen according to the manufacturer's instructions. pFastBac-HT-B-USP7 was used to transform DH10bac cells (Invitrogen), and blue/white selection was carried out on X-gal/IPTG agar plates. Bacmid DNA was prepared by an alkaline lysis procedure. The integrity of the bacmid minipreps and their orientation were checked by PCR, using generic and specific primers. Sf9 cells were cultured in InsectXpress medium (Cambrex) at 27°C and transfected with the corresponding bacmid, using GeneShuttle 40 (Q-BIOgen). Viruses were recovered in the supernatant 72 h after transfection. Viruses were amplified by infecting Sf9 cells in 50 ml InsectXpress medium in a 150 cm^2 cell culture flask with 500 µl of the supernatant from transfected Sf9 cells. Following the second round of amplification, Sf9 cells were recovered by rapid SDS lysis, boiled for 5 min at 100°C, sonicated briefly and centrifuged for 20 min at 14,000 g. Expression levels in infected Sf9 cells were compared with those in uninfected cells. […] Beads were extensively washed (50 mM sodium phosphate buffer pH 7.0, 500 mM NaCl, 10 mM Imidazole, 0.5% Triton X-100 and 10% glycerol) and bound proteins were eluted in wash buffer supplemented with 250 mM Imidazole (Sigma). Eluted fractions were resolved on 4-12% NuPAGE gels (Novex, Invitrogen). Fractions containing high concentrations of purified proteins (purity > 95%) were dialyzed (20 mM Tris HCl pH 7.6, 200 mM NaCl, 1 mM DTT, 1 mM EDTA and 10% glycerol) were aliquoted and snap frozen in liquid nitrogen before storage at -80°C.
USP7 was diluted in USP buffer (50 mM Tris HCl; 0.5 mM EDTA; 5 mM DTT; 0.01 % Triton X-100; Bovine Serum Albumin 0.05 mg.ml^-1 pH7.6). Compounds stocks (100 mM) were stored at -20°C in DMSO. Compounds were tested at different concentrations: from 200 µM to 91 nM.
Reactions were performed as duplicates in Black LJL 96 well plates (HE microplates; Molecular Devices; 20 µl final reaction volume). The substrate concentration for USP7 was 300 nM Ub-AMC (Chem. Biol., 2003, 10, p. 837-846) (Boston Biochem). The concentrations of the enzyme (USP7) in specificity assays was 100 pM. The concentrations were determined in order to perform specificity assays under initial velocities at fixed substrate concentration. Compounds were pre-incubated with enzymes for 30 minutes at 25°C. Reactions were initiated by addition of substrate to the plates containing the enzymes (+/- compounds) diluted in assay buffer. Reactions were incubated for 60 minutes at 37°C. Reactions were stopped by adding acetic acid (100 mM final). Readings were performed on a Pherastar Fluorescent Reader (BMG). λ […]. Data (mean values +/- standard deviation) were analyzed as % of control (no compound) and plotted as percentage versus the Log of the compound concentration using GraphPad (Prism). Data were fitted to a sigmoidal model (variable slope).

Caspase 3 = biological target: T2, Caspase 3 (Homo sapiens, UniProt P42574); assay: Caspase 3 activity assay (Ac-DEVD-AMC); type: biochemical; details: 250 nM Ac-DEVD-AMC, 1.6 nM enzyme; compounds tested from 200 µM to 91 nM; unit inferred; read-out: Inhibition of cysteine protease activities: Casp3
T2 sequence (P42574 29-175 limits assumed): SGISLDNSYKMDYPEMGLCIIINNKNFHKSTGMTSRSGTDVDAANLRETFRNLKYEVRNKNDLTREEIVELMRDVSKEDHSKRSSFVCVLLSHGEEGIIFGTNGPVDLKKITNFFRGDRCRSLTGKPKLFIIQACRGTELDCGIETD
T2 sequence (P42574 176-277 limits assumed): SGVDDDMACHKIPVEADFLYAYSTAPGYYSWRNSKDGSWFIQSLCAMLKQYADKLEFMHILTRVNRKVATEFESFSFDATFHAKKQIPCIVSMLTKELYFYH
Procedure: Caspase 3 was diluted in Caspase 3 buffer (100 mM Hepes pH 7.5; 10% sucrose; 0.1% CHAPS). Compounds stocks (100 mM) were stored at -20°C in DMSO. Compounds were tested at different concentrations: from 200 µM to 91 nM. Reactions were performed as duplicates in Black LJL 96 well plates (HE microplates; Molecular Devices; 20 µl final reaction volume). The substrate concentration for caspase 3 specificity assay was 250 nM (Ac-DEVD-AMC; Promega). The concentration of the enzyme (Caspase 3) in specificity assays was 1.6 nM. The concentrations were determined in order to perform specificity assays under initial velocities at fixed substrate concentration. Compounds were pre-incubated with enzymes for 30 minutes at 25°C. Reactions were initiated by addition of substrate to the plates containing the enzymes (+/- compounds) diluted in assay buffer. Reactions were incubated for 60 minutes at 37°C. Reactions were stopped by adding acetic acid (100 mM final). Readings were performed on a Pherastar Fluorescent Reader (BMG). λ Emission 380 nm; λ Excitation = 460 nm. Data (mean values +/- standard deviation) were analyzed as % of control (no compound) and plotted as percentage versus the Log of the compound concentration using GraphPad (Prism). Data were fitted to a sigmoidal model (variable slope).

T1 sequence (Q93009 whole entry): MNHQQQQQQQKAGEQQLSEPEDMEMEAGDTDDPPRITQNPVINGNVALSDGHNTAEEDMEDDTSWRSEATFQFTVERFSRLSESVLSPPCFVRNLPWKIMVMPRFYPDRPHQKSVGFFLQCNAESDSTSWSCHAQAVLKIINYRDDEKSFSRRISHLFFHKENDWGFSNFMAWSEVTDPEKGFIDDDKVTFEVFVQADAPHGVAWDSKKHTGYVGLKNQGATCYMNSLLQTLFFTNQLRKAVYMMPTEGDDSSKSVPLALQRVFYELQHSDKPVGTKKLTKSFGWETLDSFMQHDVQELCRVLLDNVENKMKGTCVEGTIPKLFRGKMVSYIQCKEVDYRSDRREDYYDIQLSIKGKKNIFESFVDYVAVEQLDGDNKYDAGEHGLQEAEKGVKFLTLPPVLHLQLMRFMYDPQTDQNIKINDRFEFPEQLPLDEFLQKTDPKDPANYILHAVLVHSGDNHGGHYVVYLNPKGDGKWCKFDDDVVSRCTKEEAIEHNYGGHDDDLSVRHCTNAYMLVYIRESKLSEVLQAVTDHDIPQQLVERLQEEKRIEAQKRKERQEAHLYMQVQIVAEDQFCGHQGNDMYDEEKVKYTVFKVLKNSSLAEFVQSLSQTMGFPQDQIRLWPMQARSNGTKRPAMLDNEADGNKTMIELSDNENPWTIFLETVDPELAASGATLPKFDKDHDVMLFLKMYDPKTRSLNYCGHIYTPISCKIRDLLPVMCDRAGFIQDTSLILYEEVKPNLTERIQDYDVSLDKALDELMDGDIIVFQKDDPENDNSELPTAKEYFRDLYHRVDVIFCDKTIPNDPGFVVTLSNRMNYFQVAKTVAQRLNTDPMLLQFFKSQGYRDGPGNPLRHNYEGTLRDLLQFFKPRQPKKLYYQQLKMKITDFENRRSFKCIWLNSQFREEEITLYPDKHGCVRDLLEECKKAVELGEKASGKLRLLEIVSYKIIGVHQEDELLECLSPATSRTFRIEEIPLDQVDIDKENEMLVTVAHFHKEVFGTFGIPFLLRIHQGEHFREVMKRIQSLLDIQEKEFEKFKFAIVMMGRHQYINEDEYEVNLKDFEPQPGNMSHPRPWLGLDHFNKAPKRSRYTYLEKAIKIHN

CC(=O)C1=C(O)C(=O)N(CCc2ccc(Cl)cc2)C1c1ccc(Br)cc1 (centres unmarked) [Example 25, 4-acetyl-5-(4-bromo-phenyl)-1-[2-(4-chloro-phenyl)-ethyl]-3-hydroxy-1,5-dihydro-pyrrol-2-one]
pIC50 (human USP7): 5.51
pIC50 (Caspase 3): < 3.70

CC(=O)C1=C(O)C(=O)N(CCc2ccc(Br)cc2)C1c1ccc(Br)cc1 (centres unmarked) [Example 26, 4-acetyl-5-(4-bromo-phenyl)-1-[2-(4-bromo-phenyl)-ethyl]-3-hydroxy-1,5-dihydro-pyrrol-2-one]
pIC50 (human USP7): 5.57
pIC50 (Caspase 3): < 3.70

CC(=O)C1=C(O)C(=O)N(CCc2ccc(Cl)c(Cl)c2)C1c1ccc(Br)cc1 (centres unmarked) [Example 28, 4-acetyl-5-(4-bromo-phenyl)-1-[2-(3,4-dichloro-phenyl)-ethyl]-3-hydroxy-1,5-dihydro-pyrrol-2-one]
pIC50 (human USP7): 5.79
pIC50 (Caspase 3): < 3.70

COc1cccc(CCN2C(=O)C(O)=C(C(C)=O)C2c2ccc(Br)cc2)c1 (centres unmarked) [Example 30, 4-acetyl-5-(4-bromo-phenyl)-3-hydroxy-1-[2-(3-methoxyphenyl)-ethyl]-1,5-dihydro-pyrrol-2-one]
pIC50 (human USP7): 4.95
pIC50 (Caspase 3): < 3.70

COc1ccc(CCN2C(=O)C(O)=C(C(C)=O)C2c2ccc(Br)cc2)cc1 (centres unmarked) [Example 32, 4-acetyl-5-(4-bromo-phenyl)-3-hydroxy-1-[2-(4-methoxyphenyl)-ethyl]-1,5-dihydro-pyrrol-2-one]
pIC50 (human USP7): 5.28
pIC50 (Caspase 3): < 3.70

CC(=O)C1=C(O)C(=O)N(CCc2ccc(F)cc2)C1c1ccc(Br)cc1 (centres unmarked) [Example 33, 4-acetyl-5-(4-bromo-phenyl)-3-hydroxy-1-[2-(4-fluorophenyl)-ethyl]-1,5-dihydro-pyrrol-2-one]
pIC50 (human USP7): 5.52
pIC50 (Caspase 3): < 3.70

CCOc1ccc(CCN2C(=O)C(O)=C(C(C)=O)C2c2ccc(Br)cc2)cc1 (centres unmarked) [Example 34, 4-acetyl-5-(4-bromo-phenyl)-3-hydroxy-1-[2-(4-ethoxy-phenyl)-ethyl]-1,5-dihydro-pyrrol-2-one]
pIC50 (human USP7): 5.18
pIC50 (Caspase 3): < 3.70

CC(=O)C1=C(O)C(=O)N(CCc2ccccc2)C1c1ccc2c(c1)OCO2 (centres unmarked) [Example 37, 4-acetyl-5-benzo[1,3]dioxol-5-yl-3-hydroxy-1-phenethyl-1,5-dihydro-pyrrol-2-one]
pIC50 (human USP7): 5.15
pIC50 (Caspase 3): < 3.70

CC(=O)C1=C(O)C(=O)N(CCc2ccccc2)C1c1ccc(Br)c(Br)c1 (centres unmarked) [Example 41, 4-acetyl-5-(3,4-dibromo-phenyl)-3-hydroxy-1-phenethyl-1,5-dihydro-pyrrol-2-one]
pIC50 (human USP7): 5.05
pIC50 (Caspase 3): < 3.70

CC(=O)C1=C(O)C(=O)N(CCc2ccccc2)C1c1cccnc1Cl (centres unmarked) [Example 42, 4-acetyl-5-(2-chloro-pyridin-3-yl)-3-hydroxy-1-phenethyl-1,5-dihydro-pyrrol-2-one]
pIC50 (human USP7): 4.92
pIC50 (Caspase 3): < 3.70

CC(=O)C1=C(O)C(=O)N(CCc2ccc(Br)cc2)C1c1ccc(Cl)cc1 (centres unmarked) [Example 45, 4-Acetyl-5-(4-chlorophenyl)-1-[2-(4-bromophenyl)-ethyl]-3-hydroxy-1,5-dihydro-pyrrol-2-one]
pIC50 (human USP7): 5.38
pIC50 (Caspase 3): < 3.70

CC(=O)C1=C(O)C(=O)N(CCc2ccc(Cl)cc2)C1c1ccc(Cl)cc1 (centres unmarked) [Example 46, 4-Acetyl-5-(4-chlorophenyl)-1-[2-(4-chlorophenyl)-ethyl]-3-hydroxy-1,5-dihydro-pyrrol-2-one]
pIC50 (human USP7): 5.36
pIC50 (Caspase 3): < 3.70

CC(=O)C1=C(O)C(=O)N(CCc2ccc(Cl)cc2Cl)C1c1ccc(Br)cc1 (centres unmarked) [Example 47, 4-Acetyl-5-(4-bromophenyl)-1-[2-(2,4-dichlorophenyl)-ethyl]-3-hydroxy-1,5-dihydro-pyrrol-2-one]
pIC50 (human USP7): 5.72
pIC50 (Caspase 3): < 3.70
